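The compound was tested at five concentrations on cells cultured in 96-well plates, with a 48-hour exposure period. At the GI50, growth is halved. TGI: total growth inhibition.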
Key:
Test in all cases: inhibition of tumour cell growth, NCI panel, 48 h
[1] = system: SF-268 CNS
[2] = system: MCF7 breast
[3] = system: K-562 leukemia
[4] = system: RPMI-8226 leukemia
[5] = system: BT-549 breast
[6] = system: EKVX NSCLC
[7] = system: SK-OV-3 ovarian
[8] = system: SF-295 CNS
[9] = system: HCT-15 colon
[10] = system: MALME-3M melanoma
[11] = system: UACC-257 melanoma
[12] = system: OVCAR-8 ovarian
[13] = system: A549 NSCLC
[14] = system: COLO 205 colon
[15] = system: SK-MEL-2 melanoma
[16] = system: IGROV1 ovarian
[17] = system: UO-31 renal
[18] = system: SR leukemia
[19] = system: NCI-H460 lung
[20] = system: CCRF-CEM leukemia
[21] = system: PC-3 prostate
[22] = system: NCI-H23 lung
[23] = system: HOP-62 NSCLC
[24] = system: SN12C renal
[25] = system: U251 CNS
[26] = system: A498 renal
[27] = system: NCI-H226 lung
[28] = system: SNB-19 CNS
[29] = system: OVCAR-5 ovarian
[30] = system: RXF 393 renal
[31] = system: MDA-MB-468 breast
[32] = system: CAKI-1 renal
[33] = system: SK-MEL-5 melanoma
[34] = system: OVCAR-3 ovarian
[35] = system: SW-620 colon
[36] = system: SK-MEL-28 melanoma
[37] = system: SF-539 CNS
[38] = system: HCC-2998 colon
[39] = system: DU-145 prostate
[40] = system: OVCAR-4 ovarian
[41] = system: HT29 colon
[42] = system: HS 578T breast
[43] = system: TK-10 renal
[44] = system: KM12 colon
[45] = system: NCI-H522 lung
[46] = system: 786-0 renal
[47] = system: T-47D breast
[48] = system: M14 melanoma
[49] = system: MDA-MB-231 breast
[50] = system: HOP-92 NSCLC
[51] = system: ACHN renal
[52] = system: UACC-62 melanoma
[53] = system: MDA-MB-435
[54] = system: HCT-116 colon

## COc1cc(/C=C/C(=O)c2cnn(-c3cc(=O)[nH]c4ccc(Cl)cc34)c2C)cc(OC)c1OC
[1]
  GI50: 3.42 µM
  TGI: > 100 µM
[2]
  GI50: 2.48 µM
  TGI: 10.2 µM
[3]
  GI50: 2.68 µM
  TGI: > 100 µM
[4]
  GI50: 2.42 µM
  TGI: > 100 µM
[5]
  GI50: 2.76 µM
  TGI: 9.98 µM
[6]
  GI50: 2.96 µM
  TGI: 14.1 µM
[7]
  GI50: 4.68 µM
  TGI: > 100 µM
[8]
  GI50: 3.16 µM
  TGI: 11.5 µM
[9]
  GI50: 1.93 µM
  TGI: 5.01 µM
[10]
  GI50: 5.1 µM
  TGI: 27.2 µM
[11]
  GI50: 7.19 µM
  TGI: 64.4 µM
[12]
  GI50: 2.06 µM
  TGI: 4.95 µM
[13]
  GI50: 3.09 µM
  TGI: > 100 µM
[14]
  GI50: 3.53 µM
  TGI: 14 µM
[15]
  GI50: 2.98 µM
  TGI: 11.8 µM
[16]
  GI50: 2.54 µM
  TGI: 7.18 µM
[17]
  GI50: 3.26 µM
  TGI: 14.5 µM
[18]
  GI50: 2.02 µM
  TGI: > 100 µM
[19]
  GI50: 1.88 µM
  TGI: 4.32 µM
[20]
  GI50: 2.42 µM
  TGI: > 100 µM
[21]
  GI50: 6.28 µM
  TGI: > 100 µM
[22]
  GI50: 2.21 µM
  TGI: 5.9 µM
[23]
  GI50: 3.57 µM
  TGI: 25.8 µM
[24]
  GI50: 2.64 µM
  TGI: 9.24 µM
[25]
  GI50: 2.83 µM
  TGI: > 100 µM
[26]
  GI50: 34.2 µM
  TGI: 87.4 µM
[27]
  GI50: 2.89 µM
  TGI: 9.13 µM
[28]
  GI50: 3.36 µM
  TGI: 14.4 µM
[29]
  GI50: 3.32 µM
  TGI: 13.4 µM
[30]
  GI50: 2.08 µM
  TGI: 4.95 µM
[31]
  GI50: 1.8 µM
  TGI: 4.41 µM
[32]
  GI50: 4.17 µM
  TGI: 22.5 µM
[33]
  GI50: 3.22 µM
  TGI: 12 µM
[34]
  GI50: 3.06 µM
  TGI: 9.9 µM
[35]
  GI50: 2.97 µM
  TGI: 11.5 µM
[36]
  GI50: 3.36 µM
  TGI: 13.3 µM
[37]
  GI50: 2.08 µM
  TGI: 4.62 µM
[38]
  GI50: 2.78 µM
  TGI: 8.21 µM
[39]
  GI50: 3.3 µM
  TGI: > 100 µM
[40]
  GI50: 3.58 µM
  TGI: > 100 µM
[41]
  GI50: 2.5 µM
  TGI: 6.58 µM
[42]
  GI50: 3.31 µM
  TGI: > 100 µM
[43]
  GI50: 3.26 µM
  TGI: > 100 µM
[44]
  GI50: 3.37 µM
  TGI: 15 µM
[45]
  GI50: 2.66 µM
  TGI: 8.38 µM
[46]
  GI50: 4.09 µM
  TGI: 21.1 µM
[47]
  GI50: 3.08 µM
  TGI: > 100 µM
[48]
  GI50: 3.2 µM
  TGI: 19.8 µM
[49]
  GI50: 3.3 µM
  TGI: 14.9 µM
[50]
  GI50: 7.31 µM
  TGI: 99.8 µM
[51]
  GI50: 1.76 µM
  TGI: 3.68 µM
[52]
  GI50: 3.36 µM
  TGI: 15 µM
[53]
  GI50: 2.6 µM
  TGI: 8.12 µM
[54]
  GI50: 3.58 µM
  TGI: 17.5 µM

Reference: PubChem BioAssay (NCI)
